PubChem BioAssay AID1918991 (Molecular Pharmacology Branch, DTP, NCI, 2023)

Tested on: 186277-243-T-J2-PDC complex spheroid growth
Experiment: Anticancer human tumor 186277-243-T-J2-PDC patient-derived colon adenocarcinoma cell line growth inhibition [AhR]
Settings: for IC50: curve of first compound; for viability, T/C: stronger effect = lower value
Method in brief: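 Agents were dosed in half-log steps down from roughly clinical Cmax, or from 10 microM where Cmax was unknown, alone and with AhR antagonists. Read-out: percent test/control growth of tumor spheroids containing HUVEC and MSC stromal cells.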

[1] = second compound 0.1 µM, first compound 0.0316 µM
[2] = second compound 0.1 µM, first compound 0.1 µM
[3] = second compound 0.1 µM, first compound 0.316 µM
[4] = second compound 0.1 µM, first compound 1 µM
[5] = second compound 0.1 µM, first compound 3.16 µM
[6] = second compound 0.1 µM, first compound 10 µM
[7] = second compound 0.316 µM, first compound 0.0316 µM
[8] = second compound 0.316 µM, first compound 0.1 µM
[9] = second compound 0.316 µM, first compound 0.316 µM
[10] = second compound 0.316 µM, first compound 1 µM
[11] = second compound 0.316 µM, first compound 3.16 µM
[12] = second compound 0.316 µM, first compound 10 µM
[13] = second compound 1 µM, first compound 0.0316 µM
[14] = second compound 1 µM, first compound 0.1 µM
[15] = second compound 1 µM, first compound 0.316 µM
[16] = second compound 1 µM, first compound 1 µM
[17] = second compound 1 µM, first compound 3.16 µM
[18] = second compound 1 µM, first compound 10 µM
[19] = second compound 3.16 µM, first compound 0.0316 µM
[20] = second compound 3.16 µM, first compound 0.1 µM
[21] = second compound 3.16 µM, first compound 0.316 µM
[22] = second compound 3.16 µM, first compound 1 µM
[23] = second compound 3.16 µM, first compound 3.16 µM
[24] = second compound 3.16 µM, first compound 10 µM
[25] = second compound 10 µM, first compound 0.0316 µM
[26] = second compound 10 µM, first compound 0.1 µM
[27] = second compound 10 µM, first compound 0.316 µM
[28] = second compound 10 µM, first compound 1 µM
[29] = second compound 10 µM, first compound 3.16 µM
[30] = second compound 10 µM, first compound 10 µM
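Further: spheroids exposed to compounds for seven days before the viability read.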
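Wherever viability, T/C is given: luminescent signal used as a stand-in for viable cell amount; 100% = DMSO vehicle control wells.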

Compound | IC50 (second compound 0.1 µM) | IC50 (second compound 0.316 µM) | IC50 (second compound 1 µM) | IC50 (second compound 3.16 µM) | IC50 (second compound 10 µM) | viability, T/C [1] | viability, T/C [2] | viability, T/C [3] | viability, T/C [4] | viability, T/C [5] | viability, T/C [6] | viability, T/C [7] | viability, T/C [8] | viability, T/C [9] | viability, T/C [13] | viability, T/C [14] | viability, T/C [19] | viability, T/C [20] | viability, T/C [25] | viability, T/C [26] | further results
COc1cc(Nc2ncc3c(n2)-c2ccc(Cl)cc2C(c2c(F)cccc2OC)=NC3)ccc1C(=O)O + Cc1ccccc1N=Nc1ccc(NC(=O)c2ccnn2C)c(C)c1 | > 10000 nM | > 10000 nM | > 10000 nM | > 10000 nM | > 10000 nM | 132% | 125% | 117% | 107% | 115% | 120% | 134% | 119% | 114% | 130% | 123% | 133% | 118% | 108% | 104% | viability, T/C [10]: 108%; viability, T/C [11]: 101%; viability, T/C [12]: 117%; viability, T/C [15]: 114%; viability, T/C [16]: 107%; viability, T/C [17]: 107%; viability, T/C [18]: 117%; viability, T/C [21]: 110%; viability, T/C [22]: 103%; viability, T/C [23]: 106%; viability, T/C [24]: 114%; viability, T/C [27]: 105%; viability, T/C [28]: 96.5%; viability, T/C [29]: 93.3%; viability, T/C [30]: 102%
Cn1ncnc1C1c2n[nH]c(=O)c3cc(F)cc(c23)NC1c1ccc(F)cc1 (stereo not given) + Cc1ccccc1N=Nc1ccc(NC(=O)c2ccnn2C)c(C)c1 | > 100 nM | > 100 nM | > 100 nM | > 100 nM | > 100 nM | 108% | 107% |  |  |  |  | 107% | 103% |  | 105% | 118% | 119% | 112% | 95.3% | 98.7% | viability, T/C (second compound 0.1 µM, first compound 0.000316 µM): 107%; viability, T/C (second compound 0.1 µM, first compound 0.001 µM): 101%; viability, T/C (second compound 0.1 µM, first compound 0.00316 µM): 107%; viability, T/C (second compound 0.1 µM, first compound 0.01 µM): 93.2%; viability, T/C (second compound 0.316 µM, first compound 0.000316 µM): 98.8%; viability, T/C (second compound 0.316 µM, first compound 0.001 µM): 113%; viability, T/C (second compound 0.316 µM, first compound 0.00316 µM): 101%; viability, T/C (second compound 0.316 µM, first compound 0.01 µM): 104%; viability, T/C (second compound 1 µM, first compound 0.000316 µM): 109%; viability, T/C (second compound 1 µM, first compound 0.001 µM): 98.3%; viability, T/C (second compound 1 µM, first compound 0.00316 µM): 109%; viability, T/C (second compound 1 µM, first compound 0.01 µM): 116%; viability, T/C (second compound 3.16 µM, first compound 0.000316 µM): 101%; viability, T/C (second compound 3.16 µM, first compound 0.001 µM): 101%; viability, T/C (second compound 3.16 µM, first compound 0.00316 µM): 113%; viability, T/C (second compound 3.16 µM, first compound 0.01 µM): 105%; viability, T/C (second compound 10 µM, first compound 0.000316 µM): 95.4%; viability, T/C (second compound 10 µM, first compound 0.001 µM): 96.7%; viability, T/C (second compound 10 µM, first compound 0.00316 µM): 101%; viability, T/C (second compound 10 µM, first compound 0.01 µM): 105%
NS(=O)(=O)OCC1CC(n2ccc3c(NC4CCc5ccccc54)ncnc32)CC1O (stereo not given) + Cc1ccccc1N=Nc1ccc(NC(=O)c2ccnn2C)c(C)c1 | 853 nM | 633 nM | 590 nM | 457 nM | 304 nM | 106% | 97.9% | 77.6% | 43.7% | 23.1% | 7.4% | 109% | 117% | 67.1% | 110% | 110% | 103% | 97.5% | 93.7% | 80% | viability, T/C [10]: 38%; viability, T/C [11]: 19.6%; viability, T/C [12]: 8.23%; viability, T/C [15]: 61.4%; viability, T/C [16]: 38.6%; viability, T/C [17]: 20.1%; viability, T/C [18]: 9.57%; viability, T/C [21]: 50.2%; viability, T/C [22]: 36.3%; viability, T/C [23]: 13.6%; viability, T/C [24]: 5.34%; viability, T/C [27]: 43.5%; viability, T/C [28]: 29.8%; viability, T/C [29]: 10.1%; viability, T/C [30]: 4.53%
O=C(C=Cc1cccc(S(=O)(=O)Nc2ccccc2)c1)NO + Cc1ccccc1N=Nc1ccc(NC(=O)c2ccnn2C)c(C)c1 | 2020 nM | 1740 nM | 1900 nM | 1660 nM | 1470 nM | 114% | 104% | 96.2% | 88.8% | 25.4% | 4.8% | 96.7% | 114% | 101% | 104% | 100% | 91.5% | 114% | 89.8% | 97.8% | viability, T/C [10]: 74.7%; viability, T/C [11]: 23.2%; viability, T/C [12]: 4.82%; viability, T/C [15]: 108%; viability, T/C [16]: 84.7%; viability, T/C [17]: 22.3%; viability, T/C [18]: 4.07%; viability, T/C [21]: 112%; viability, T/C [22]: 74.5%; viability, T/C [23]: 18.4%; viability, T/C [24]: 3%; viability, T/C [27]: 96.5%; viability, T/C [28]: 65%; viability, T/C [29]: 18.8%; viability, T/C [30]: 3.18%
